Experimental data taken from the supplement of paper PMC10307832.

Columns and labels:
Experiment in all cases: relative viability (nuclei count vs DMSO), 5 days (fraction); higher = more cells survive
[1] = compound: C(C(=O)C(=O)O)Br [Bromopyruvate] + CC(C)C[C@H](NC(=O)[C@H](Cc1ccccc1)NC(=O)c1cnccn1)B(O)O [Bortezomib] (partner 0.002 µM)
In short: (§1)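 Lung cancer cell lines were seeded in 1536-well plates and dosed by pin tool the next day, with either a single drug or a fixed anchor-drug dose combined with five library-drug doses (not always all listed) spaced in √10 steps. Five days later, one step fixed the cells and stained their nuclei (final 0.05% Triton X-100, 1% formaldehyde, 1 ug/ml Hoechst), and nuclei were counted on 4× images. Relative viability is the nuclei count in treated wells divided by the count in vehicle wells, and each value is the median of duplicate plates.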

Bromopyruvate + Olaparib = compound: C(C(=O)C(=O)O)Br [Bromopyruvate] + O=C(c1cc(Cc2n[nH]c(=O)c3ccccc23)ccc1F)N1CCN(C(=O)C2CC2)CC1 [Olaparib] (partner 8 µM)
In short: as §1

[2] = compound: CC(O)(CS(=O)(=O)c1ccc(F)cc1)C(=O)Nc1ccc(C#N)c(C(F)(F)F)c1 [Bicalutamide] + C[C@@H](Oc1cc(-c2cnn(C3CCNCC3)c2)cnc1N)c1c(Cl)ccc(F)c1Cl [Crizotinib] (partner 1 µM)
In short: as §1

[3] = compound: C(C(=O)C(=O)O)Br [Bromopyruvate] + CCNC(=O)c1noc(-c2cc(C(C)C)c(O)cc2O)c1-c1ccc(CN2CCOCC2)cc1 [Luminespib] (partner 0.01 µM)
In short: as §1

UMC-11
relative viability ([1]; first compound 1 µM): 0.817 | relative viability ([1]; first compound 3.162 µM): 0.79 | relative viability ([1]; first compound 10 µM): 0.846 | relative viability ([1]; first compound 31.62 µM): 0.645 | relative viability ([1]; first compound 100 µM): 0.721 | relative viability (Bromopyruvate + Olaparib; first compound 1 µM): 0.366 | relative viability (Bromopyruvate + Olaparib; first compound 3.162 µM): 0.356 | relative viability (Bromopyruvate + Olaparib; first compound 10 µM): 0.374 | relative viability (Bromopyruvate + Olaparib; first compound 31.62 µM): 0.35 | relative viability (Bromopyruvate + Olaparib; first compound 100 µM): 0.393 | relative viability ([2]; first compound 0.08 µM): 0.69 | relative viability ([2]; first compound 0.253 µM): 0.521 | relative viability ([2]; first compound 0.8 µM): 0.643 | relative viability ([2]; first compound 2.53 µM): 0.399 | relative viability ([3]; first compound 1 µM): 0.959 | relative viability ([3]; first compound 3.162 µM): 0.998 | relative viability ([3]; first compound 10 µM): 0.987 | relative viability ([3]; first compound 31.62 µM): 1.05 | relative viability ([3]; first compound 100 µM): 1.06
